Source: ChEMBL document CHEMBL1201862, “PubChem BioAssay data set” (2004)
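Briefly, cells in 96-well plates were exposed to five compound concentrations for 48 h, and endpoints were estimated by linear interpolation. The concentration for 50% growth inhibition is given as GI50.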 Activity calls are given as the source filed them. Rule as the data show it: active = GI50 up to about 1.1 µM and inactive = higher.

Assays:
Assay in all cases: DTP human tumour cell line panel, 48 h
[1] = test system: T47D
[2] = test system: IGROV-1
[3] = test system: M14
[4] = test system: UACC-257
[5] = test system: RXF 393
[6] = test system: SNB-19
[7] = test system: LOX IMVI
[8] = test system: EKVX
[9] = test system: HCT-15
[10] = test system: SK-MEL-2
[11] = test system: MDA-MB-231
[12] = test system: HT-29
[13] = test system: SN12C
[14] = test system: A549
[15] = test system: OVCAR-5
[16] = test system: SF-295
[17] = test system: CCRF-CEM
[18] = test system: Malme-3M
[19] = test system: SR
[20] = test system: UO-31

| SMILES | GI50 [1] | GI50 [2] | GI50 [3] | GI50 [4] | GI50 [5] | GI50 [6] | GI50 [7] | GI50 [8] | GI50 [9] | GI50 [10] | GI50 [11] | GI50 [12] | GI50 [13] | GI50 [14] | GI50 [15] | GI50 [16] | GI50 [17] | GI50 [18] | GI50 [19] | GI50 [20] |
| --- | --- | --- | --- | --- | --- | --- | --- | --- | --- | --- | --- | --- | --- | --- | --- | --- | --- | --- | --- | --- |
| O=C(Nc1ccccc1)O/N=C(/CBr)c1ccccc1 | 11.5 µM (inactive) | 14.6 µM (inactive) | 6.79 µM (inactive) | 17.8 µM (inactive) | 31.9 µM (inactive) | 20.6 µM (inactive) | 3.15 µM (inactive) | 17.1 µM (inactive) | 4.04 µM | 13.9 µM (inactive) | 12.2 µM (inactive) | 6.87 µM (inactive) | 8.22 µM (inactive) | 34 µM (inactive) | 18.1 µM (inactive) | 26 µM (inactive) | 3.52 µM (inactive) | 13 µM (inactive) | 3.94 µM (inactive) | 16.1 µM (inactive) |
| COC(=O)C12CCC(C(=O)OC)(Cc3c(c4ccccc4n3S(=O)(=O)c3ccccc3)C1)C2=O (stereo not given) | > 100 µM (inactive) | > 26.7 µM (inactive) | > 63.8 µM (inactive) | > 64.1 µM (inactive) | 1.61 µM (inactive) | > 56.4 µM (inactive) | > 59.3 µM (inactive) | > 100 µM (inactive) | > 100 µM | > 100 µM (inactive) | > 100 µM (inactive) | > 46.3 µM (inactive) | > 100 µM (inactive) | > 46 µM (inactive) | > 32.2 µM (inactive) | > 51.1 µM (inactive) | 1 µM (active) | 36.1 µM (inactive) | > 100 µM (inactive) | > 100 µM (inactive) |
| O=C1c2c(Br)sc(Br)c2[C@@H](Cl)[C@H]1Cl | 19 µM (inactive) | 17.7 µM (inactive) | 19.7 µM (inactive) | 15.9 µM (inactive) | 15.5 µM (inactive) | 18.9 µM (inactive) | 15.2 µM (inactive) | 21.7 µM (inactive) | 19.7 µM | 18.9 µM (inactive) | 19.5 µM (inactive) | 28.4 µM (inactive) | 8.87 µM (inactive) | 29 µM (inactive) | 20.8 µM (inactive) | 20.5 µM (inactive) | 3.18 µM (inactive) | 19.1 µM (inactive) | 2.81 µM (inactive) | 20.2 µM (inactive) |
| N#Cc1nc(/C=C/c2cccnc2)oc1N | > 100 µM (inactive) | > 100 µM (inactive) | > 100 µM (inactive) | > 100 µM (inactive) | > 100 µM (inactive) | > 100 µM (inactive) | > 100 µM (inactive) | > 100 µM (inactive) | > 100 µM | > 100 µM (inactive) | > 100 µM (inactive) | > 100 µM (inactive) | > 100 µM (inactive) | 28.4 µM (inactive) | > 100 µM (inactive) | > 100 µM (inactive) | > 100 µM (inactive) | > 100 µM (inactive) | > 100 µM (inactive) | > 100 µM (inactive) |
| NC1=Nc2ncccc2C(=O)NN1 | > 10 µM (inactive) | > 10 µM (inactive) | > 10 µM (inactive) | > 10 µM (inactive) | > 10 µM (inactive) | > 10 µM (inactive) | > 10 µM (inactive) | > 10 µM (inactive) | > 10 µM | > 10 µM (inactive) | > 10 µM (inactive) | > 10 µM (inactive) | > 10 µM (inactive) | > 10 µM (inactive) | > 10 µM (inactive) | > 10 µM (inactive) | > 10 µM (inactive) | > 10 µM (inactive) | > 10 µM (inactive) | > 10 µM (inactive) |
| Cc1sc(/N=C/c2c[nH]c3ccccc23)c(C#N)c1C | 18.6 µM (inactive) | 21.7 µM (inactive) | 22 µM (inactive) | 44.6 µM (inactive) | 22.3 µM (inactive) | 61.2 µM (inactive) | 34.6 µM (inactive) | 67.9 µM (inactive) | 24 µM | 30.5 µM (inactive) | 36.4 µM (inactive) | 6.89 µM (inactive) | 74.3 µM (inactive) | 65 µM (inactive) | > 100 µM (inactive) | 28.3 µM (inactive) | 15.3 µM (inactive) | 25.9 µM (inactive) | 18.2 µM (inactive) | 48 µM (inactive) |
| CN(C)CCCn1c(Cc2ccc(Cl)cc2)nc2cc(C(F)(F)F)ccc21 | 12 µM (inactive) | 13.1 µM (inactive) | 12.7 µM (inactive) | 15.6 µM (inactive) | 9.06 µM (inactive) | 16.5 µM (inactive) | 14.5 µM (inactive) | 17.4 µM (inactive) | 17.1 µM | 16.9 µM (inactive) | 13.6 µM (inactive) | 14.6 µM (inactive) | 15.1 µM (inactive) | 18.2 µM (inactive) | 17.7 µM (inactive) | 17.5 µM (inactive) | 13 µM (inactive) | 11 µM (inactive) | 15 µM (inactive) | 0.301 µM (active) |
| Cc1ccc(-c2cn3c(nc4ccccc43)c(C)n2)cc1 | 4.2 µM (inactive) | 11.7 µM (inactive) | 39.5 µM (inactive) | > 100 µM (inactive) | 21.8 µM (inactive) | 66.2 µM (inactive) | 71.6 µM (inactive) | > 54 µM (inactive) | 25.2 µM | > 43.4 µM (inactive) | > 94.6 µM (inactive) | 24.4 µM (inactive) | 55.6 µM (inactive) | 55.1 µM (inactive) | 51.6 µM (inactive) | > 58.1 µM (inactive) | 85.3 µM (inactive) | 37.6 µM (inactive) | 21.5 µM (inactive) | 2.71 µM (inactive) |
| COc1cc(/C=C2\C[C@H]3[C@@H]4CCC5=CC(=O)CC[C@]5(C)[C@H]4CC[C@]3(C)C2=O)cc(OC)c1OC | 2.04 µM (inactive) | 8.99 µM (inactive) | 3.74 µM (inactive) | 6.07 µM (inactive) | 10.1 µM (inactive) | 30.3 µM (inactive) | 7.94 µM (inactive) | 15.6 µM (inactive) | 4.82 µM | 7.19 µM (inactive) | 7.74 µM (inactive) | 5.82 µM (inactive) | 6.4 µM (inactive) | 4.15 µM (inactive) | 33.1 µM (inactive) | 5.93 µM (inactive) | 4.76 µM (inactive) | 11.4 µM (inactive) | 3.04 µM (inactive) | 2.72 µM (inactive) |
| COc1ccccc1/C=N/Nc1nnc2c3ccccc3c3ncccc3c2n1 | 39.7 µM (inactive) | 53.1 µM (inactive) | 50.5 µM (inactive) | > 100 µM (inactive) | 18.1 µM (inactive) | 39.2 µM (inactive) | 64.1 µM (inactive) | 43.1 µM (inactive) | > 100 µM | 24.2 µM (inactive) | 26.2 µM (inactive) | 57.4 µM (inactive) | 87.5 µM (inactive) | > 100 µM (inactive) | 79.4 µM (inactive) | 6.14 µM (inactive) | 17.6 µM (inactive) | 49.1 µM (inactive) | 39.9 µM (inactive) | > 100 µM (inactive) |
| Cc1nc2ccc(/N=N/N(C)C)cc2[nH]1 | > 100 µM (inactive) | > 100 µM (inactive) | > 100 µM (inactive) | > 100 µM (inactive) | > 100 µM (inactive) | > 100 µM (inactive) | > 100 µM (inactive) | > 100 µM (inactive) | > 100 µM | > 100 µM (inactive) | > 100 µM (inactive) | > 100 µM (inactive) | > 100 µM (inactive) | > 100 µM (inactive) | > 100 µM (inactive) | > 100 µM (inactive) | 98.9 µM (inactive) | > 100 µM (inactive) | > 100 µM (inactive) | > 100 µM (inactive) |
| COc1ccc(C(Cc2ccccc2)C2NC(=S)NC2=O)cc1 (stereo not given) | > 25 µM (inactive) | > 25 µM (inactive) | > 25 µM (inactive) | > 25 µM (inactive) | > 25 µM (inactive) | > 25 µM (inactive) | > 25 µM (inactive) | > 25 µM (inactive) | > 25 µM | > 25 µM (inactive) | > 25 µM (inactive) | > 25 µM (inactive) | > 25 µM (inactive) | > 25 µM (inactive) | > 25 µM (inactive) | > 25 µM (inactive) | > 25 µM (inactive) | > 25 µM (inactive) | 9.27 µM (inactive) | > 25 µM (inactive) |
| O=C(Cn1nc(Br)c(Br)c1Br)c1ccccc1 | 24.5 µM (inactive) | 27.7 µM (inactive) | 26.7 µM (inactive) | 20 µM (inactive) | 13.6 µM (inactive) | 39.3 µM (inactive) | 16.4 µM (inactive) | 22.5 µM (inactive) | 31.6 µM | 20.7 µM (inactive) | 18.9 µM (inactive) | 22.2 µM (inactive) | 65.6 µM (inactive) | 33.7 µM (inactive) | 40.7 µM (inactive) | 29.1 µM (inactive) | 5.97 µM (inactive) | 22 µM (inactive) | 0.152 µM (active) | 18.2 µM (inactive) |
| COC(=O)C12Oc3ccc(-c4ccc5c(c4O)C(O)=C4C(=O)CC(C)C(O)C4(C(=O)OC)O5)c(O)c3C(O)=C1C(=O)CC(C)C2O (stereo not given) | 0.25 µM (active) | 0.104 µM (active) | 0.104 µM (active) | 0.073 µM (active) | 0.0877 µM (active) | 0.583 µM (active) | 0.151 µM (active) | 0.0805 µM (active) | 0.216 µM | 0.0798 µM (active) | 0.63 µM (active) | 0.0495 µM (active) | 0.121 µM (active) | 0.0702 µM (active) | 0.119 µM (active) | 0.211 µM (active) | 0.0255 µM (active) | 0.0217 µM (active) | 0.0234 µM (active) | 0.156 µM (active) |
